Reference: the supplement of paper PMC13380429

Tests used:
[1] = test system: A549-ACE2 infected with SARS-CoV-2; test: SARS-CoV-2 infection rate relative to DMSO; higher = more infection; conditions: 24 h
[2] = test system: A549-ACE2; test: drug-induced phospholipidosis relative to tamoxifen; higher = more phospholipidosis
[3] = test system: A549-ACE2 infected with SARS-CoV-2; test: cell count relative to DMSO; higher = less toxic; conditions: 24 h
[4] = test system: U2OS; test: relative viability EC50 (midpoint between 100% and the lowest measured viability); higher = less toxic; conditions: 72 h
[5] = test system: Caco-2; test: as above; conditions: 72 h
[6] = test system: Calu-3; test: as above; conditions: 72 h
[7] = test system: Vero E6; test: as above; conditions: 72 h
[8] = test system: HepG2; test: as above; conditions: 72 h
[9] = test system: U2OS; test: drug sensitivity score (DSS) for viability; higher = more toxic; extreme values may be limits of the assay; conditions: 72 h
[10] = test system: Caco-2; test: as above; conditions: 72 h
[11] = test system: Calu-3; test: as above; conditions: 72 h
[12] = test system: Vero E6; test: as above; conditions: 72 h
[13] = test system: HepG2; test: as above; conditions: 72 h
[14] = test system: A549-ACE2 infected with SARS-CoV-2; test: morphology score (similarity to uninfected cells); higher = more like uninfected cells; conditions: 24 h
[15] = test system: A549-ACE2; test: phospholipidosis EC50; higher = less potent phospholipidosis inducer
[16] = test system: U2OS; test: cell viability relative to DMSO; higher = less toxic; conditions: 72 h
[17] = test system: Caco-2; test: as above; conditions: 72 h
[18] = test system: Calu-3; test: as above; conditions: 72 h
[19] = test system: Vero E6; test: as above; conditions: 72 h
[20] = test system: HepG2; test: as above; conditions: 72 h

COc1cc2c(NC3CCN(C(C)C)CC3)nc(N3CCC(F)(F)CC3)nc2cc1OCCCN1CCCC1 [UNC0642]
Conditions | SARS-CoV-2 infection rate [%] | cell count [%] | cell viability [%] | morphology score | phospholipidosis EC50 [nM]
[1], 0.3 µM | 87 | – | – | – | –
[1], 3 µM | 21 | – | – | – | –
[1], 10 µM | 13 | – | – | – | –
[1], 30 µM | 35 | – | – | – | –
[3], 0.3 µM | – | 94 | – | – | –
[3], 3 µM | – | 122 | – | – | –
[3], 10 µM | – | 123 | – | – | –
[3], 30 µM | – | 89 | – | – | –
[14], 0.3 µM | – | – | – | 0.09 | –
[14], 3 µM | – | – | – | 0.76 | –
[14], 10 µM | – | – | – | 0.09 | –
[14], 30 µM | – | – | – | -0.23 | –
[15], 48 h | – | – | – | – | 1190
[15], 72 h | – | – | – | – | 3660
[16], 1 nM | – | – | 98.6 | – | –
[16], 10 nM | – | – | 95.4 | – | –
[16], 100 nM | – | – | 100 | – | –
[16], 1000 nM | – | – | 98.6 | – | –
[16], 10000 nM | – | – | 81.1 | – | –
[17], 1 nM | – | – | 101 | – | –
[17], 10 nM | – | – | 92.5 | – | –
[17], 100 nM | – | – | 104 | – | –
[17], 1000 nM | – | – | 106 | – | –
[17], 10000 nM | – | – | 99.7 | – | –
[18], 1 nM | – | – | 93.9 | – | –
[18], 10 nM | – | – | 95.1 | – | –
[18], 100 nM | – | – | 95.3 | – | –
[18], 1000 nM | – | – | 96.6 | – | –
[18], 10000 nM | – | – | 32.9 | – | –
[19], 1 nM | – | – | 96.6 | – | –
[19], 10 nM | – | – | 102 | – | –
[19], 100 nM | – | – | 91.6 | – | –
[19], 1000 nM | – | – | 108 | – | –
[19], 10000 nM | – | – | 105 | – | –
[20], 1 nM | – | – | 95.1 | – | –
[20], 10 nM | – | – | 103 | – | –
[20], 100 nM | – | – | 106 | – | –
[20], 1000 nM | – | – | 102 | – | –
[20], 10000 nM | – | – | 24.8 | – | –

drug-induced phospholipidosis [%], [2]
Conditions | 0.3 µM | 0.833333 µM | 3.33333 µM | 6.66667 µM | 10 µM | 30 µM
24 h | 4.47 | 9.42 | 29.6 | 35.7 | 32.6 | 5.01
48 h | 8.91 | 12.1 | 34 | 48.6 | 51.8 | 0.44
72 h | 9.24 | 11 | 36.7 | 55.6 | 62.4 | –

Conditions | drug sensitivity score | relative viability EC50
[4] | – | > 10 µM
[5] | – | > 10 µM
[6] | – | 2780 nM
[7] | – | > 10 µM
[8] | – | 3.34 µM
[9] | 0.7 | –
[10] | 0 | –
[11] | 4.2 | –
[12] | 0 | –
[13] | 4 | –
